Data taken from patent US4044043A, “Derivatives of 9-oxo-13-trans-prostenoic acid esters” (American Cyanamid Company, priority 1975, dated 1977).
In brackets after ≈: the same amount, converted by molar mass.

Assays:
diastolic blood pressure = assay: Prostaglandin-like hypotensive activity in anesthetized rats (minimal dose for about 10 mm. decrease in diastolic blood pressure); type: in vivo, Male Wistar strain rats; details: Rattus norvegicus; intravenous; decrease of about 10 mm. in diastolic blood pressure
Method: This procedure is a modification of the technique described by Pike et al., Prostaglandins, Nobel Symposium 2, Stockholm, June, 1966; p, 165.
Male Wistar strain rats (Royal Hart Farms) averaging approximately 250 grams in weight were fastened to rat boards in a supine position by means of canvas vests and limb ties. The femoral area was infiltrated subcutaneously with lidocaine and the iliac artery and vein exposed and cannulated. Arterial blood pressure (systolic/diastolic) was recorded using a Statham P23 Db pressure transducer-Offner dynograph system. To obtain a stable blood pressure, the animals were anesthetized before use with pentobarbital, 30 mg./kg. of body weight intravenously, and also were given hexamethonium bitartrate, 2 mg./kg. of body weight intravenously. The test compounds were prepared by ultrasonic dispersion in a saline-Tween 80 ® vehicle. A constant intravenous dose volume of 0.5 ml. was administered and test doses ranged from 0.1 to 10.0 mg./kg. of body weight. Increasing or decreasing doses were selected depending on the dose response obtained. In Table I below are set forth the minimal doses required to produce a decrease of about 10 mm. in diastolic blood pressure for typical compounds of the present invention.

[1] = test system: Mycobacterium smegmatis ATCC 606; assay: agar-dilution streak-plate antimicrobial assay; type: cell-based; details: Mycolicibacterium smegmatis, ATCC606, read-out: Minimal inhibitory conc. (6)
Method: The novel compounds of the present invention are also useful as antimicrobial agents. […] In this assay, the compounds to be tested are made up to contain 2.5 mg. of test compound per milliliter of solution. Observing sterile techniques, two-fold serial dilution are made of each test solution. One milliliter of each of the original solutions and of each of the serial dilutions is then added to 9 ml. of warm sterile nutrient agar capable of supporting growth of the bacterial test cultures. A second set of agar dilutions is prepared identical to the first except that the nutrient agar is designed to support the growth of the fungal test cultures. […] The test bacteria and yeast-like fungi are prepared for use by growing in broth overnight. The spores of the filamentous fungi are harvested from mature agar slant cultures and are suspended in sterile physiological saline solution. A loopful of each of the resulting live suspensions is then, still employing sterile techniques, streaked upon the surfaces of each of the agar plates and the resulting streaked plates are then incubated. After an appropriate period of time, each of the streaks on each of the plates is inspected visually and the extent, if any, of bacterial or fungal growth is noted. The minimal inhibitory concentration (expressed in micrograms per milliliter) is defined as the concentration of test compound causing complete inhibition of growth of any particular organism. In a representative operation, and merely by way of illustration, the minimal inhibitory concentration of typical compounds of the present invention against a variety of test organisms as determined in the above-described assay are set forth in Tables II and III below: […]

gastric acid secretion = assay: Inhibition of Gastric Acid Secretion (Pylorous-Ligated Rat), Shay rat procedure; type: in vivo, rats (male, CFE strain); details: 100 mg./kg. intraduodenal, read-out: % Inhibition of Control Gastric Acid Secretion
Description: The novel compounds of the present invention are also effective inhibitors of gastric acid secretion and of ulcer development in experimental animals, and thus are potentially valuable as agents for the control of gastric acid secretion and of gastric erosion and as anti-ulcer agents. Gastric acid secretion inhibitory action is usually measured by the Shay rat procedure ^(1,2) with some modifications as follows. 6 1. Shay et al., Gastroenterology, 5, 43 (1945). 6 2. Shay et al., Gastroenterology, 26, 906 (1954).
The rats (male, CFE strain) were starved for 48 hours (water was given ad libitum) to permit evacuation of stomach contents. On the morning of the experiment, under ether anesthesia, the abdominal region was shaved and a midline incision (1-1 1/2 inch) was made with a scalpel. With the help of a closed curved hemostat the duodenum was picked up. Upon getting the duodenum into view fingers were used to pull the stomach through the opening, the stomach was then gently manipulated with fingers to rid stomach of air and residual matter which were pushed through the pylorus. Two 5-inch sutures were drawn under the pyloric-duodenal puncture. A ligature, at the juncture, was formed with one of the threads. The second ligature was also formed but not tightened.
The test compound or the vehicle, usually 1 ml./100 g. body weight, were injected into the duodenum as close as possible to the first ligature. After injection the second ligature was tightened below the injection site to minimize leakage. The stomach was placed back through the opening into the abdominal cavity, the area of incision was washed with saline and the incision was closed with autoclips. (Ocasionally instead of an intraduodenal injection, animals were dosed by the oral or subcutaneous route. In the latter case, dosing was done thirty to sixty minutes before the operation).
The abdominal cavity was exposed by cutting with scissors and the esophagus close to the stomach was clamped off with a hemostat, the stomach was removed by cutting above the hemostat (the esophagus was cut) and between the two sutures. Extraneous tissue was removed, the stomach washed with saline and blotted on gauze. A slit was carefully made in the stomach which was held over a funnel and the contents were collected in a centrifuge tube. The stomach was further cut along the outside edge and turned inside out. Two ml. of water were used to wash the stomach contents into the respective centrifuge tube. The combined stomach contents and wash were then centrifuged out for 10 minutes in the International Size 2 Centrifuge (setting at 30). The supernatant was collected, volume measured and recorded, 2 drops of phenolphthalein indicator (1% in 95% ethanol) were added and the solution was titrated with 0.02N NaOH (or with 0.04N NaOH when large volumes of stomach contents were encountered) to pH 8.4 (because of usual coloring of the stomach contents, phenolphthalein was only used to permit visual indication that the end point was near) and the amount of acid present was calculated.
Compounds inducing inhibition of gastric acid secretion of 20% or more were considered active. In a representative operation, and merely by way of illustration, the results obtained with this assay with typical compounds of the present invention are given in Table IIIA.

[2] = test system: dl-PGE1-induced contraction of gerbil colon; assay: Inhibition of dl-PGE1-Induced Contraction of Gerbil Colon (prostaglandin antagonist action); type: cell-based, gerbils (Meriones unguiculatus); details: for IC50: Meriones unguiculatus, 1 min, sub-maximal challenge, 20 ng./ml. dl-PGE1, 50% inhibition of maximum response, read-out: ID50 vs. 20 ng. of PGE1/ml.
Method: The compounds of this invention are also useful as antagonists of prostaglandin action and accordingly they are potentially useful as anti-inflammatory agents, and as agents for the treatment of periodontal diseases and diarrhea. Testing for prostaglandin antagonist action is carried out in the following manner. Sections of ascending colon, approximately 20 mm. long, from mature male gerbils (Meriones unguiculatus) weighing 70-80 g. were mounted in De Jalon's solution (154 mM NaCl; 5.95 mM NAHCO3; […], 5.64 mM KC and .27 mM CaCl2 in 20 ml. tissue baths) (L and K Glass Co., Lynnhurst, N.J.). The medium was continually gassed with a mixture of 95% 02 -5% CO2 and maintained at 37° C. The tissues were suspended via silk suture threads between a glass hook at the base and a model FT .03C force displacement transducer (Grass Instruments, Quincy, Massachusetts). Contractions were recorded on a Poly-Viso ® polygraph (Sanborn Co., Cambridge, Massachusetts). After mounting, tissues were allowed to stabilize 15-20 minutes during which time adjustments were made to establish and maintain a 0.5 g. resting tension on the muscle. Thereafter, test cycles of 3-5 minutes were begun and consisted of a 1 minute exposure to the potential antagonist, if called for, followed by a 1 minute exposure to the prostaglandin agonist, a 15-30 sec. washout and a recovery period of 2-2.5 minutes. […] During the washout period, the tissue was rinsed with a measured amount equalling 8 volumes of medium. Muscle relaxation was virtually complete by the end of the washout period. During preliminary tests it was noted that a final concentration of 200 ng./ml. of a racemic mixture of synthetic prostaglandin-E1 (dl-PGE1) produced maximal muscle contraction. Following stabilization, muscles were exposed 2 to 3 times to this concentration of dl-PGE1 until a consistent response was recorded. Once maximal responses were established, test cycles with potential antagonists were commenced and were followed alternately with prostaglandin-only test cycle. […] The contraction of the muscle induced by 200 ng./ml. dl-PGE1 following exposure to a given concentration of the potential antagonist was always compared to the response of the tissue to that level of dl PGE1 in the immediately preceding cycle. Using a series of potential antagonist concentrations, an approximate ID50 (concentration at which 50% inhibition was observed) was established. The compounds were also tested against a sub-maximal prostaglandin challenge (20 ng./ml. dl-PGE1) in which case activity is reported in terms of a 50% inhibition of maximum response.

Which minimal effective dose (diastolic blood pressure) does the source give for `CC[S+]([O-])CCC/C=C/[C@@H]1CCC(=O)[C@H]1CCCCCCC(=O)O` (relative stereo) [9-oxo-18-oxythia-13-trans-prostenoic acid] here?
The minimal effective dose was 2 to 8 mg/kg.

How did the MIC [1] turn out when `CCCCCC/C=C/[C@H]1CCC(O)[C@@H]1CCCCCCC(=O)OCC` (stereo partly drawn) [ethyl 9-hydroxy-13-trans-prostenoate, ethyl 9α- and 9β-hydroxy-13-trans-prostenoate] was run?
The MIC was 25 µg/mL (≈ 70.9 µM).

`CCCCCCC/C=C/[C@H]1CCC(=O)[C@@H]1CCCCCCC(=O)OCC` (relative stereo) [ethyl 20-methyl-9-oxo-13-trans-prostenoate] was tested. Which minimal effective dose (diastolic blood pressure) did it give?
Its minimal effective dose is 0.5 mg/kg.

And the inhibition in vivo at 100 mg/kg (gastric acid secretion)?
The inhibition in vivo at 100 mg/kg was 36%.

How did the MIC [1] turn out when `CCCCCC/C=C/[C@H]1CCC(=O)[C@@H]1CCCCC(=O)OCC` (relative stereo) [ethyl 9-oxo-6,7-dinor-13-trans-prostenoate] was run?
The MIC was 250 µg/mL (≈ 775 µM).

For `CC/C=C\CC/C=C/[C@H]1CCC(=O)[C@@H]1CCCCCCC(=O)OCC` (relative stereo) [ethyl 9-oxo-13-trans-17-cis-prostadienoate], which minimal effective dose (diastolic blood pressure) is on record?
Its minimal effective dose is 0.2 to 2 mg/kg.

For `CCCCCCC=CC1CC(C#N)C(=O)C1CCCCCCC(=O)OCC` (stereo not drawn) [Ethyl 10-cyano-9-oxo-13-trans-prostenoate], which IC50 [2] is on record?
Its IC50 is 10 to 25 µg/mL (≈ 26.6 to 66.6 µM).

Which inhibition in vivo at 100 mg/kg (gastric acid secretion) does the source give for `CCCCCCC=CC1CC(SC)C(=O)C1CCCCCCC(=O)OCC` (stereo not drawn) [Ethyl 10-methylthio-9-oxo-13-trans-prostenoate] here?
Its inhibition in vivo at 100 mg/kg is 35%.

Which inhibition in vivo at 100 mg/kg (gastric acid secretion) does the source give for `CCCCCC/C=C/[C@@H]1CCC(=O)[C@H]1CCCCSCC(=O)OCC` (relative stereo) [ethyl 9-oxo-3-thia-13-trans-prostenoate] here?
The inhibition in vivo at 100 mg/kg was 39%.

Which inhibition in vivo at 100 mg/kg (gastric acid secretion) does the source give for `CCCCCC/C=C/[C@@H]1CCC(=NNc2cc(Cl)ccc2Cl)[C@H]1CCCCCCC(=O)O` (relative stereo) [9-Oxo-13-trans-prostenoic acid 2,5-dichlorophenylhydrazone] here?
The inhibition in vivo at 100 mg/kg was 30%.

For `CCCCCC/C=C/[C@@H]1CCC(=O)[C@H]1CCCCCCC(=O)OCCCC` (relative stereo) [butyl 9-oxo-13-trans-prostenoic acid], which inhibition in vivo at 100 mg/kg (gastric acid secretion) is on record?
Its inhibition in vivo at 100 mg/kg is 46%.

`CCC/C=C/[C@H]1CCCC(=O)[C@@H]1CCCCCCC(=O)OCC` (relative stereo) [ethyl 9-oxo-18,19,20-trinor-10a-homo-13-transprostenoate] was tested. Which inhibition in vivo at 100 mg/kg (gastric acid secretion) did it give?
Its inhibition in vivo at 100 mg/kg is 37%.

`CCOC(=O)CCCCCC[C@H]1C(=O)CC[C@@H]1/C=C/CCCS(=O)(=O)CC` (relative stereo) [ethyl 9-oxo-18-dioxythia-13-trans-prostenoate] was tested. Which inhibition in vivo at 100 mg/kg (gastric acid secretion) did it give?
Its inhibition in vivo at 100 mg/kg is 34%.

How did the inhibition in vivo at 100 mg/kg (gastric acid secretion) turn out when `CCC/C=C/[C@@H]1CCC(=O)[C@H]1CCCCOCC(=O)OCC` (relative stereo) [ethyl 9-oxo-3-oxa-18,19,20-trinor-13-trans-prostenoate] was run?
Its inhibition in vivo at 100 mg/kg is 65%.

What does the source list for `CCCCCC/C=C/[C@H]1CCC(=O)[C@@H]1CCCCCCC(=O)OCC` (relative stereo) [ethyl 9-oxo-13-trans-prostenoate]?
minimal effective dose (diastolic blood pressure): 0.5 mg/kg; inhibition in vivo at 100 mg/kg (gastric acid secretion): 28%

With `CCCCCCC=CC1CC(c2ccccc2)C(=O)C1CCCCCCC(=O)OCC` (stereo not drawn) [Ethyl 9-oxo-10-phenyl-13-trans-prostenoate] as the molecule, how does the inhibition in vivo at 100 mg/kg (gastric acid secretion) read?
Its inhibition in vivo at 100 mg/kg is 24%.

Which MIC [1] does the source give for `CCOC(=O)CCCCCC[C@H]1C(=O)CC[C@@H]1/C=C/CCCCCCI` (relative stereo) [ethyl 20-iodo-9-oxo-13-trans-prostenoate] here?
Its MIC is 62 µg/mL (≈ 130 µM).

And the inhibition in vivo at 100 mg/kg (gastric acid secretion)?
The inhibition in vivo at 100 mg/kg was 42%.

Which results are given for `CCC/C=C/[C@@H]1CCCC(=O)[C@H]1CCCCCCC(=O)O` (relative stereo) [9-oxo-18,19,20-trinor-10a-homo-13-trans-prostenoic acid]?
inhibition in vivo at 100 mg/kg (gastric acid secretion): 39%; IC50 [2]: 1 µg/mL (≈ 3.4 µM)

`CCCCCCC=CC1CC(F)C(=O)C1CCCCCCC(=O)OCC` (stereo not drawn) [Ethyl 10-fluoro-9-oxo-13-trans-prostenoate] was tested. Which inhibition in vivo at 100 mg/kg (gastric acid secretion) did it give?
Its inhibition in vivo at 100 mg/kg is 25%.

How did the “final concentration that produced maximal muscle contraction” value ([2]; agonist alone, preliminary tests) turn out when `CCCCC[C@H](O)/C=C/[C@H]1[C@H](O)CC(=O)[C@@H]1CCCCCCC(=O)O` (relative stereo) [dl-PGE1, prostaglandin-E1, reference compound] was run?
The value was 200 ng/mL.

What does the source list for `CCCCCC/C=C/[C@H]1CCCC(=O)[C@@H]1CCCCCCC(=O)OCC` (relative stereo) [ethyl 9-oxo-10a-homo-13-trans-prostenoate]?
minimal effective dose (diastolic blood pressure): 2 mg/kg; inhibition in vivo at 100 mg/kg (gastric acid secretion): 46%

How did the IC50 [2] turn out when `CC(C)/C=C/[C@H]1CCC(=O)[C@@H]1CCCCCCC(=O)O` (relative stereo) [15-methyl-9-oxo-17,18,19,20-tetranor-13-trans-prostenoic acid] was run?
Its IC50 is 25 to 30 µg/mL (≈ 89.2 to 107 µM).

For `CCCC=CC1CCC(=O)C1CCCCCC(F)C(=O)OCC` (stereo not drawn) [ethyl 9-oxo-2-fluoro-18,19,20-trinor-13-trans-prostenoate], which inhibition in vivo at 100 mg/kg (gastric acid secretion) is on record?
The inhibition in vivo at 100 mg/kg was 84%.
